Assay [1] has as its target T1, SMARCA2-HiBiT HeLa cells (protein which is expressed from the SMARCA2 gene) (Homo sapiens, UniProt P51531).
T1 construct: protein which is expressed from the SMARCA2 and SMARCA4 genes; host or cells: HeLa (SMARCA2-HiBiT engineered line)
Kind of assay: SMARCA2 degradation assay (HiBiT-fusion HeLa cell line, 24 h, luminescence). Type of assay: cell-based. The method in brief:
(§1)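 HeLa cells carrying HiBiT-tagged SMARCA2 or SMARCA4 were seeded at 8,000 cells/well, allowed to attach overnight at 37° C., then given compounds in a 10-point dilution series (typically 10 μM to 300 pM) for 24 hours at 37° C. Remaining tagged protein was read by HiBiT lytic luminescence, and DC50s came from dose-response curves.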
A general note: HiBiT is a short tag that completes a luciferase, so light tracks the accessible tagged protein.

The target of assay [2] is T2, SMARCA4-HiBiT HeLa cells (protein which is expressed from the SMARCA4 gene) (Homo sapiens, UniProt P51532).
T2 construct: protein which is expressed from the SMARCA2 and SMARCA4 genes; host or cells: HeLa (SMARCA4-HiBiT engineered line)
T2 sequence (P51532 whole entry): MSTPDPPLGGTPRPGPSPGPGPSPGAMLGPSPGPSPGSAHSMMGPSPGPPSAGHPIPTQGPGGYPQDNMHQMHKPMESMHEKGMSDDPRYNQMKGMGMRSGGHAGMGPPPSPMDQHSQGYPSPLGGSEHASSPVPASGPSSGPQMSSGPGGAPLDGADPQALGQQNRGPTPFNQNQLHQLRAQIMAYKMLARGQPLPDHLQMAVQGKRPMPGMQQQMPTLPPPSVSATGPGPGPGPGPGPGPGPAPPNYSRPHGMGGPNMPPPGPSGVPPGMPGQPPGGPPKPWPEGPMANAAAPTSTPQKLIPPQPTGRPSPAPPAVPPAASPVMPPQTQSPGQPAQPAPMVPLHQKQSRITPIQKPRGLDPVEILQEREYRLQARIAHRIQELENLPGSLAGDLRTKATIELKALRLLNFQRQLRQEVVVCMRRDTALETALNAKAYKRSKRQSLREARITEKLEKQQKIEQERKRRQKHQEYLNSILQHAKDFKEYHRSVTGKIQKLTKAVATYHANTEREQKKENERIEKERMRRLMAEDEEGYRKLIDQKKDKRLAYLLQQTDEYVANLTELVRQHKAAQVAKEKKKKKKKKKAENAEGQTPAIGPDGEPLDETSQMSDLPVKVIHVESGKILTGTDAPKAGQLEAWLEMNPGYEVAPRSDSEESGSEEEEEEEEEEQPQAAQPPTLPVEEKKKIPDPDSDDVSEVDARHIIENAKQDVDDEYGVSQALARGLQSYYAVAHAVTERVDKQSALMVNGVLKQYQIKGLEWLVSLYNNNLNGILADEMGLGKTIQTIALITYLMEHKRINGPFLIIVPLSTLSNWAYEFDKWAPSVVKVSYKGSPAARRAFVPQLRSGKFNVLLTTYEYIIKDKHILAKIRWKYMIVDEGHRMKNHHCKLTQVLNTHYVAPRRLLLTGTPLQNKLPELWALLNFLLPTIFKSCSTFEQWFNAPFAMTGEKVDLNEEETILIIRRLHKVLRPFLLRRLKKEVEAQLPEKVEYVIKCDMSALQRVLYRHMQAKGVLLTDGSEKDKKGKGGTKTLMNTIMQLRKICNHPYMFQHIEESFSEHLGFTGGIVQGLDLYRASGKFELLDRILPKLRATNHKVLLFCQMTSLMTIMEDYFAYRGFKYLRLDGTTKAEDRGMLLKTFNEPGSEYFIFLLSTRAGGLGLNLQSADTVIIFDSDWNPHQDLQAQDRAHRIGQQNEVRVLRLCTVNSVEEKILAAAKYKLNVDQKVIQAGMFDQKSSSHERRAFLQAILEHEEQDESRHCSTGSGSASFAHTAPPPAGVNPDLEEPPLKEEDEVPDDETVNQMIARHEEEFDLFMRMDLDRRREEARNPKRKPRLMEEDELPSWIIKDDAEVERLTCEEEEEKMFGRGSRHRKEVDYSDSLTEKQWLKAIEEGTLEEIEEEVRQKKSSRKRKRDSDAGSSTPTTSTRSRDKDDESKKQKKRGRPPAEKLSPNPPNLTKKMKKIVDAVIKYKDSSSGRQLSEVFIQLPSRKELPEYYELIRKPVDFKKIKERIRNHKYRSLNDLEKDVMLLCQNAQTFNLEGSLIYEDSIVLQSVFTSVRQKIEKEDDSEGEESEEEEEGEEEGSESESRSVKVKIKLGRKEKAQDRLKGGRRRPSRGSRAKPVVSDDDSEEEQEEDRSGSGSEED
The assay can be described thus: SMARCA4 degradation assay (HiBiT-fusion HeLa cell line, 24 h, luminescence). The class given is cell-based. The method in brief: as §1

T1 sequence (P51531 whole entry): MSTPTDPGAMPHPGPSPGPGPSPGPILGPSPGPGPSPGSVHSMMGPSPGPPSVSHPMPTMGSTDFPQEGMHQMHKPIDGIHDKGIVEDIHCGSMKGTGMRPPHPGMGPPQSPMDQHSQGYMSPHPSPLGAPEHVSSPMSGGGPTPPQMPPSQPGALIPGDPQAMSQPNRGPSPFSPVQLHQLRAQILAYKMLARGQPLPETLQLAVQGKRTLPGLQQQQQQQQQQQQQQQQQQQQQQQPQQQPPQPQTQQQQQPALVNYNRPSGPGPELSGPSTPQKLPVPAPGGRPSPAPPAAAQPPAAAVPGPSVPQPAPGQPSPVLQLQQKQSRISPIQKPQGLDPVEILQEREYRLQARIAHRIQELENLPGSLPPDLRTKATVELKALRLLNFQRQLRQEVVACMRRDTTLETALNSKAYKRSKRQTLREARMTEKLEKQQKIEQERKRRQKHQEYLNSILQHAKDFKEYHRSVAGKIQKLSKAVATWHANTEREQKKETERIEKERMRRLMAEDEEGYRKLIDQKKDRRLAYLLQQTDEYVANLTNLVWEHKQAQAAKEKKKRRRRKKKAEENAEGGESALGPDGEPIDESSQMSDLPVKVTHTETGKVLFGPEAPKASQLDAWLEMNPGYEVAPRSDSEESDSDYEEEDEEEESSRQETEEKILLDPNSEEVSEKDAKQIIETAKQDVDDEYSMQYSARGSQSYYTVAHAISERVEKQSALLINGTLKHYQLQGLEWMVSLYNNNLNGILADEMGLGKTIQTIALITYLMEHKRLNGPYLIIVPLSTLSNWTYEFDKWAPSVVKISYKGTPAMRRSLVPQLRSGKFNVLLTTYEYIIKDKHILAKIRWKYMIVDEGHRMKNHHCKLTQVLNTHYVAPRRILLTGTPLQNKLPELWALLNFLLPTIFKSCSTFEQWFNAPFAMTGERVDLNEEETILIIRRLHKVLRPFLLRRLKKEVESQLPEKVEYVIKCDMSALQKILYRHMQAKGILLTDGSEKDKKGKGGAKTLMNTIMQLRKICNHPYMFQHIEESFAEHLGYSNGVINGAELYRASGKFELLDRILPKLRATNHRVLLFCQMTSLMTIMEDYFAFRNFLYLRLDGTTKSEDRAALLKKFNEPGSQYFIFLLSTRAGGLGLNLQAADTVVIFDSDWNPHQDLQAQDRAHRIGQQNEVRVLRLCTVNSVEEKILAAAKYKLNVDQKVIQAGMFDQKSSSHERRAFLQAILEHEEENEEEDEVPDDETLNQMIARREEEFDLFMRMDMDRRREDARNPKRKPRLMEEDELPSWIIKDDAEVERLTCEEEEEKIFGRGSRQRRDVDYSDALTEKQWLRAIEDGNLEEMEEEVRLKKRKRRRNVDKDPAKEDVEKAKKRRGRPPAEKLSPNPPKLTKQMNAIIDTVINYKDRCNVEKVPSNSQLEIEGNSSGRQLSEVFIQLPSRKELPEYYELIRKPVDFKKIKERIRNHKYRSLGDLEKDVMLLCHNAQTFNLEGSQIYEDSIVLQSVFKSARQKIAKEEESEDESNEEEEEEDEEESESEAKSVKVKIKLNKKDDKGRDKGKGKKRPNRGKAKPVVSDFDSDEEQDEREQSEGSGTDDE

With `CC[C@H](C)NCC#Cc1nccc(N2CCCN(c3cc(-c4ccccc4O)nnc3N)CC2)n1` [Compound P-257, o-{5-[4-(2-{3-[(S)-1-methylpropylamino]-1-propynyl}-4-pyrimidinyl)-1,4-diazepan-1-yl]-6-amino-3-pyridazinyl}phenol], in assay [1], the DC50 is 0.05 to 0.5 µM and the “SMARCA2 % Degradation @ 1 μM” value is listed as “+++ (+++=>70%)”. In addition, in assay [2], the DC50 lay in the range of 0.05 to 0.5 µM and the inhibition at 1 µM is 30 to 70%.
Consider `Nc1nnc(-c2ccccc2O)cc1N1CCCN(c2ccnc(C#CCNCCF)n2)CC1` [Compound P-258, o-[6-amino-5-(4-{2-[3-(2-fluoroethylamino)-1-propynyl]-4-pyrimidinyl}-1,4-diazepan-1-yl)-3-pyridazinyl]phenol], for which, in assay [1], the DC50 was in the range of 0.5 to 5 µM and the “SMARCA2 % Degradation @ 1 μM” value is recorded as “++ (++=30-70%)”. Also, in assay [2], the DC50 lay within 0.5 to 5 µM and the inhibition at 1 µM fell in the range of 30 to 70%.
`CC(C)(C)OC(=O)NCC#Cc1nccc(N2CC3=C(C2)CN(c2cc(-c4ccccc4O)nnc2N)C3)n1` [Compound P-259, 3-(4-{7-[3-amino-6-(o-hydroxyphenyl)-4-pyridaziny1]-3,7-diazabicyclo[3.3.0]oct-1(5)-en-3-y1}-2-pyrimidinyl)-2-propynylamino-tert-butylformylate]: in assay [1], the half-maximal degradation concentration (DC50) is less than 0.05 µM and the “SMARCA2 % Degradation @ 1 μM” value is given as “++ (++=30-70%)”. In assay [2], the DC50 is less than 0.05 µM and the inhibition at 1 µM was 30 to 70%.
As for `C[C@@H]1CCN(c2cc(-c3ccccc3O)nnc2N)CCN1c1ccnc(C#CCN2[C@H](C)COC[C@@H]2C)n1` [Compound P-260, o-{5-[(R)-4-(2-{3-[(3R,5S)-3,5-dimethyl-4-morpholiny1]-1-propynyl}-4-pyrimidinyl)-5-methyl-1,4-diazepan-1-yl]-6-amino-3-pyridaziny1}phenol], in assay [1], the DC50 is less than 0.05 µM and the “SMARCA2 % Degradation @ 1 μM” value was “++ (++=30-70%)”. In assay [2], this compound registered a DC50 of 0.05 to 0.5 µM and an inhibition at 1 µM of less than 30%.
For `C[C@@H]1CCN(c2cc(-c3ccccc3O)nnc2N)CCN1c1ccnc(C#CCN2[C@@H]3CC[C@H]2C[C@@H](O)C3)n1` [Compound P-261, 8-[3-(4-{(R)-4-[3-amino-6-(o-hydroxyphenyl)-4-pyridazinyl]-7-methyl-1,4-diazepan-1-yl}-2-pyrimidinyl)-2-propynyl]-8-azabicyclo[3.2.1]octan-3-ol] the same measures were 0.05 to 0.5 µM, “+++ (+++=>70%)”, 0.05 to 0.5 µM and 30 to 70%.
For `CC(C)[C@@H]1COCCN1CC#Cc1nccc(N2CCN(c3cc(-c4ccccc4O)nnc3N)CC[C@H]2C)n1` [Compound P-262, o-{5-[(R)-4-(2-{3-[(R)-3-isopropyl-4-morpholinyl]-1-propynyl}-4-pyrimidinyl)-5-methyl-1,4-diazepan-1-yl]-6-amino-3-pyridazinyl} phenol] the same measures were 0.05 to 0.5 µM, “+++ (+++=>70%)”, 0.05 to 0.5 µM and 30 to 70%.
For the compound `C[C@@H]1CCN(c2cc(-c3ccccc3O)nnc2N)CCN1c1ccnc(C#CCN2CC[C@H]2CF)n1` [Compound P-263, o-{5-[(R)-4-(2-{3-[(S)-2-(fluoromethyl)-1-azetidinyl]-1-propynyl}-4-pyrimidinyl)-5-methyl-1,4-diazepan-1-yl]-6-amino-3-pyridazinyl}phenol], in assay [1], the DC50 fell in the range of 0.05 to 0.5 µM and the “SMARCA2 % Degradation @ 1 μM” value is listed as “++ (++=30-70%)”. In assay [2], this compound displayed a DC50 of less than 0.05 µM and an inhibition at 1 µM of less than 30%.
On to `C[C@@H]1CCN(c2cc(-c3ccccc3O)nnc2N)CCN1c1ccnc(C#CCN2[C@H](C)C[C@H]2C)n1` [Compound P-264, o-{5-[(R)-4-(2-{3-[(2R,4R)-2,4-dimethyl-1-azetidinyl]-1-propynyl}-4-pyrimidinyl)-5-methyl-1,4-diazepan-1-yl]-6-amino-3-pyridazinyl}phenol], for which, in assay [1], the DC50 was less than 0.05 µM and the “SMARCA2 % Degradation @ 1 μM” value is listed as “++ (++=30-70%)”. In assay [2], the DC50 was less than 0.05 µM and the inhibition at 1 µM lay in the range of 30 to 70%.
On to `C[C@@H]1CCN(c2cc(-c3ccccc3O)nnc2N)CCN1c1ccnc(C#C[C@@H](O)C2CC2)n1` [Compound P-265, o-{5-[(R)-4-{2-[(S)-3-cyclopropyl-3-hydroxy-1-propynyl]-4-pyrimidinyl}-5-methyl-1,4-diazepan-1-yl]-6-amino-3-pyridaziny1} phenol], for which, in assay [1], the DC50 lay in the range of 0.05 to 0.5 µM and the “SMARCA2 % Degradation @ 1 μM” value is “+++ (+++=>70%)”. Further, in assay [2], the DC50 lay in the range of 0.05 to 0.5 µM and the inhibition at 1 µM was more than 70%.
For the compound `C[C@@H]1CCN(c2cc(-c3ccccc3O)nnc2N)CCN1c1ccnc(C#C[C@H](O)C2CC2)n1` [Compound P-266, 0-{5-[(R)-4-{2-[(R)-3-cyclopropyl-3-hydroxy-1-propynyl]-4-pyrimidinyl}-5-methyl-1,4-diazepan-1-yl]-6-amino-3-pyridaziny1} phenol], in assay [1], the DC50 is 0.05 to 0.5 µM and the “SMARCA2 % Degradation @ 1 μM” value is “+++ (+++=>70%)”. In assay [2], this compound yielded a DC50 of 0.05 to 0.5 µM and an inhibition at 1 µM of 30 to 70%.
As to `CC(C)(C)OC(=O)NCC#Cc1nccc(N2CCC3CCC(C2)N3c2cc(-c3ccccc3O)nnc2N)n1` (stereo not shown) [Compound P-267, 3-(4-{9-[3-amino-6-(o-hydroxyphenyl)-4-pyridaziny1]-3,9-diazabicyclo[4.2.1]non-3-yl}-2-pyrimidinyl)-2-propynylamino-tert-butylformylate], in assay [1], the 50% degradation concentration (DC50) fell in the range of 0.05 to 0.5 µM and the “SMARCA2 % Degradation @ 1 μM” value is reported as “+++ (+++=>70%)”. Further, in assay [2], the DC50 was in the range of 0.05 to 0.5 µM and the inhibition at 1 µM was in the range of 30 to 70%.
In the case of `C[C@@H]1CCN(c2cc(-c3ccccc3O)nnc2N)CCN1c1ccnc(C#CCNC(=O)OC2CC/C=C\CCC2)n1` (stereo partly drawn) [Compound P-268, 4-[(R)-4-(2-{3-[(Z)-4-cycloocten-1-yloxycarbonylamino]-1-propynyl}-4-pyrimidinyl)-5-methyl-1,4-diazepan-1-yl]-6-(o-hydroxyphenyl)-3-pyridazinamine], in assay [1], the 50% degradation concentration (DC50) was 0.05 to 0.5 µM and the “SMARCA2 % Degradation @ 1 μM” value was “+++ (+++=>70%)”. Further, in assay [2], the half-maximal degradation concentration (DC50) lay in the range of 0.05 to 0.5 µM and the inhibition at 1 µM lay in the range of 30 to 70%.
As to `C[C@@H]1CCN(c2cc(-c3ccccc3O)nnc2N)CCN1c1ccnc(C#CC2CC(F)(F)C2)n1` [Compound P-269, 0-{5-[(R)-4-{2-[2-(3,3-difluorocyclobutyl)ethynyl]-4-pyrimidinyl}-5-methyl-1,4-diazepan-1-y1]-6-amino-3-pyridazinyl} phenol], in assay [1], the DC50 was in the range of 0.05 to 0.5 µM and the “SMARCA2 % Degradation @ 1 μM” value is listed as “+++ (+++=>70%)”. In assay [2], this compound had a DC50 of 0.05 to 0.5 µM and an inhibition at 1 µM of more than 70%.
On to `C[C@@H]1CCN(c2cc(-c3ccccc3O)nnc2N)CCN1c1ccnc(C#CCN2CC(F)(F)[C@@H]2C)n1` [Compound P-270, 0-{5-[(R)-4-(2-{3-[(S)-3,3-difluoro-2-methyl-1-azetidinyl]-1-propyny1}-4-pyrimidinyl)-5-methyl-1,4-diazepan-1-yl]-6-amino-3-pyridaziny1} phenol], for which, in assay [1], the 50% degradation concentration (DC50) lay within 0.05 to 0.5 µM and the “SMARCA2 % Degradation @ 1 μM” value is on record as “++ (++=30-70%)”. For the same compound, in assay [2], the DC50 was 0.05 to 0.5 µM and the inhibition at 1 µM was 30 to 70%.
In the case of `C[C@@H]1CCN(c2cc(-c3ccccc3O)nnc2N)CCN1c1ccnc(C#CCN2CC(F)(F)[C@H]2C)n1` [Compound P-271, 0-{5-[(R)-4-(2-{3-[(R)-3,3-difluoro-2-methyl-1-azetidinyl]-1-propynyl}-4-pyrimidinyl)-5-methyl-1,4-diazepan-1-yl]-6-amino-3-pyridazinyl}phenol], in assay [1], the DC50 fell in the range of 0.05 to 0.5 µM and the “SMARCA2 % Degradation @ 1 μM” value is “++ (++=30-70%)”. In assay [2], this compound came in with a DC50 of 0.05 to 0.5 µM and an inhibition at 1 µM of less than 30%.
As to `Nc1nnc(-c2ccccc2O)cc1N1CCCN(c2ccnc(C#CCN[C@@H]3CCOC3)n2)CC1` [Compound P-273, 0-{5-[4-(2-{3-[(R)-tetrahydro-3-furylamino]-1-propynyl}-4-pyrimidinyl)-1,4-diazepan-1-yl]-6-amino-3-pyridazinyl}phenol], in assay [1], the DC50 lay in the range of 0.05 to 0.5 µM and the “SMARCA2 % Degradation @ 1 μM” value is “+++ (+++=>70%)”. In assay [2], the DC50 was in the range of 0.05 to 0.5 µM and the inhibition at 1 µM is 30 to 70%.
Take `CC[C@@H](C)NCC#Cc1nccc(N2CCCN(c3cc(-c4ccccc4O)nnc3N)CC2)n1` [Compound P-274, 0-{5-[4-(2-{3-[(R)-1-methylpropylamino]-1-propynyl}-4-pyrimidinyl)-1,4-diazepan-1-yl]-6-amino-3-pyridazinyl}phenol]: in assay [1], the 50% degradation concentration (DC50) is 0.05 to 0.5 µM and the “SMARCA2 % Degradation @ 1 μM” value is on record as “+++ (+++=>70%)”. Further, in assay [2], the DC50 lay within 0.05 to 0.5 µM and the inhibition at 1 µM fell in the range of 30 to 70%.
Consider `Nc1nnc(-c2ccccc2O)cc1N1CCCN(c2ccnc(C#CCN[C@H]3CCOC3)n2)CC1` [Compound P-275, 0-{5-[4-(2-{3-[(S)-tetrahydro-3-furylamino]-1-propynyl}-4-pyrimidinyl)-1,4-diazepan-1-yl]-6-amino-3-pyridaziny1}phenol], for which, in assay [1], the DC50 was in the range of 0.05 to 0.5 µM and the “SMARCA2 % Degradation @ 1 μM” value is on record as “+++ (+++=>70%)”. In assay [2], this compound showed a DC50 of 0.05 to 0.5 µM and an inhibition at 1 µM of 30 to 70%.
As for `COC[C@H](C)NCC#Cc1nccc(N2CCCN(c3cc(-c4ccccc4O)nnc3N)CC2)n1` [Compound P-276, 0-{5-[4-(2-{3-[(S)-2-methoxy-1-methylethylamino]-1-propynyl}-4-pyrimidinyl)-1,4-diazepan-1-yl]-6-amino-3-pyridazinyl}phenol], in assay [1], the 50% degradation concentration (DC50) is 0.05 to 0.5 µM and the “SMARCA2 % Degradation @ 1 μM” value is “++ (++=30-70%)”. In assay [2], this compound showed a DC50 of 0.05 to 0.5 µM and an inhibition at 1 µM of 30 to 70%.

By DC50 is commonly meant the concentration at which degradation of the target reaches its halfway point. As usually defined, the inhibition is the percentage by which the read-out fell short of the control. A higher inhibition goes with a strong effect.

For the origin of these results see patent US20260265238A1, “COMPOUNDS AND PHARMACEUTICAL COMPOSITIONS THAT DEGRADE SWI/SNF-RELATED MATRIX-ASSOCIATED ACTIN-DEPENDENT REGULATOR OF CHROMATIN SUBFAMILY A” (Plexium, Inc., priority 2023, published 2026).
